{
  "source": "patent US10053443B2",
  "about": "“2-phenylbenzofuran derivatives, method for preparing the same and use of the same for treating inflammatory disease” (KOREA RESEARCH INSTITUTE OF BIOSCIENCE AND BIOTECHNOLOGY, priority 2014, dated 2018)",
  "test_system": "lung tissue sections",
  "assay": "Histopathological analysis of lung (H&E, PAS) in asthma mice",
  "type": "in vivo, mouse",
  "conditions": "OVA asthma Balb/c mice, 5 or 15 mg/kg PO",
  "procedure": "6 week old Balb/c female mice in the average weight of 20 g were adapted for 1 week. 2 mg of aluminum hydroxide (A8222, Sigma, St. Louis, Mo.) and 20 μg of ovalbumin (A5503, sigma, St. Louis, Mo.) were suspended in phosphate buffer (pH 7.4). Each mouse was administered with 200 μl of the phosphate buffer suspension via intraperitoneal injection for sensitization at 2 weeks intervals. The mouse was forced to inhale 1% ovalbumin (OVA) through ultrasonic atomizer for 30 minutes a day for 3 days after the first intraperitoneal injection of ovalbumin. 24 hours after the antigen administration, airway hyperreactivity was measured. 48 hours later, a lethal dose of pentobarbital (Entobar, Hanlim Pharma. Co., Ltd.) was administered to the mouse. The bronchus was opened and the alveoli were washed with 1.4 ml of saline. Then, the test samples were obtained. The normal control (NC) was not administered with ovalbumin nor inhaled. The asthma induced group (OVA) was administered with ovalbumin and inhaled to induce bronchial asthma. […]\nTo evaluate the level of mucus production by investigating the increase of the number of goblet cells, the mucus secretion cells, the lung was extracted from the mouse without bronchoalveolar lavage. […] The proliferation of goblet cells was evaluated by measuring the ratio of the goblet cells selected by the staining above in bronchial epithelial cells.",
  "data": [
    {"smiles": "COc1cc(CCCO)cc2cc(-c3ccc(C)cc3)oc12", "note": "[Example 4, 3-(7-methoxy-2-p-tolylbenzofuran-5-yl)propane-1-ol]", "values": [
      {"measurement": "accumulation of inflammatory cells around bronchiole (H&E)", "setting": "FIG. 6", "result": "significantly reduced"},
      {"measurement": "proliferation of goblet cells (PAS, mucus production)", "setting": "FIG. 7", "result": "significantly reduced"}
    ]}
  ]
}
